ChEMBL document CHEMBL2095176, “GSK Tuberculosis Screening Data”
In brackets after ≈: the same amount, converted by molar mass.

Tested on: Mycobacterium tuberculosis variant bovis BCG
Experiment: microbe, parasite or virus in culture
Assay type: functional

Row | SMILES | MIC90 [µM]
1 | CN(C)S(=O)(=O)c1ccc(C(=O)Nc2nnc(-c3ccc(Cl)s3)o2)cc1 | 5.7 (≈ 2.35 µg/mL)
2 | Cc1csc2nc(Cc3ccc(C(=O)c4ccc(C(=O)OCc5ccccc5)cc4)cc3)oc(=O)c12 | 2.3 (≈ 1.14 µg/mL)
3 | Cc1cc(C(=O)Nc2nc(C)c(C)s2)c2c(C)nn(C(C)C)c2n1 | 5.5 (≈ 1.89 µg/mL)
4 | Cc1ccccc1CN1CCc2nc(N3CCN(c4ncccn4)CC3)ncc2C1 | 4 (≈ 1.61 µg/mL)
5 | COc1ccc(-c2nc(CN3CCCC3c3cccs3)cs2)cc1OC (stereo not given) | 1.4 (≈ 0.541 µg/mL)
6 | COc1ccc(-c2nnc3sc(Cc4ccccc4)nn23)cc1 | 2.7 (≈ 0.87 µg/mL)
7 | O=C(Nc1ccccc1-c1nc(Cl)cs1)OCCOC1CCNCC1 | 7.6 (≈ 2.9 µg/mL)
8 | NC(=O)c1cnc2ccc(S(=O)(=O)c3ccccc3)cc2c1Nc1ccc(O)cc1 | 2.9 (≈ 1.22 µg/mL)
9 | Cc1nc2ccccn2c1C(=O)NCc1ccc(Cl)cc1 | 2 (≈ 0.6 µg/mL)
10 | c1ccc(-c2nc(N3CCCNCC3)c3ccccc3n2)cc1 | 2.7 (≈ 0.822 µg/mL)
11 | COc1ccc(S(=O)(=O)Nc2ccccc2Nc2ccc(C)cc2)cc1 | 2.8 (≈ 1.03 µg/mL)
12 | Br.CCCc1cc(C(C)=O)ccc1OCCCON1C(=N)N=C(N)NC1(C)C | 8.8
13 | CC(C)Cc1cn(-c2nc(CN3CCCC3)cs2)c2cc(Cl)ccc12 | 1.9 (≈ 0.711 µg/mL)
14 | Cn1c(SCC(=O)Nc2sccc2C#N)nnc1-c1ccc(Cl)cc1 | 2.4 (≈ 0.936 µg/mL)
15 | O=C(Nc1nc(-c2ccccn2)cs1)c1ccc(-n2cccn2)cc1 | 0.7 (≈ 0.243 µg/mL)
16 | O=C(c1ccc(-c2cccc(OCCN3CCC(c4ccccc4)CC3)c2)cc1)N1CCCC1 | 4.3 (≈ 1.95 µg/mL)
17 | CC1Sc2ccc(C(=O)N3CCCCC3c3nc4ccccc4s3)cc2NC1=O (stereo not given) | 9.8 (≈ 4.15 µg/mL)
18 | COc1ccc(NC(=O)N2CCCN(c3nc4c(C)c(C)ccc4cc3C#N)CC2)cc1 | 5.3 (≈ 2.28 µg/mL)
19 | c1ccc(Cc2nnc(Sc3ccnc(N4CCN(c5ccncc5)CC4)n3)n2CCN2CCOCC2)cc1 | 9.9 (≈ 5.38 µg/mL)
20 | CCC(C)CC(=O)Nc1nc2c(s1)C(=O)CC(C(=O)N(C)Cc1cccc3ncccc13)C2 (stereo not given) | 0.3 (≈ 0.139 µg/mL)
21 | COc1ccc(-c2cc(NC(=O)c3ccc(F)cc3Cl)ccc2OC)cc1 | 8.2 (≈ 3.16 µg/mL)
22 | Cc1nc2ccccn2c1C(=O)NCc1ccccc1 | 3.4 (≈ 0.902 µg/mL)
23 | c1ccc2oc(CN3CCC4(CC3)OCCc3sccc34)cc2c1 | 2.8 (≈ 0.95 µg/mL)

Row | SMILES | MIC90 [µM]
24 | Cc1ccc(-n2cc3c(-c4ccc(Cl)cc4)nnc(C)c3n2)cc1 | 5.7 (≈ 1.91 µg/mL)
25 | CCc1c(C)nc(-c2cccc(F)c2)nc1N1CCNCC1 | 7.6 (≈ 2.28 µg/mL)
26 | CC1=NN(C(=O)c2ccco2)C(O)(c2ccccc2)C1 (stereo not given) | 4.2 (≈ 1.14 µg/mL)
27 | c1coc(-c2nnc(Sc3ccnc(N4CCN(c5ccncc5)CC4)n3)n2CCCN2CCOCC2)c1 | 2.8 (≈ 1.49 µg/mL)
28 | Cc1cc(Cl)cc(C(=O)c2c(C(C)C)c(=O)[nH]c(=O)n2Cc2cc(F)nc(F)c2)c1 | 0.4 (≈ 0.174 µg/mL)
29 | O=C(C=Cc1cccs1)Nc1nc(-c2ccccn2)cs1 | 3.3 (≈ 1.03 µg/mL)
30 | CSc1ccc(-c2nnc(NC(=O)c3ccc(Cl)s3)o2)cc1 | 6.5 (≈ 2.29 µg/mL)
31 | CC(C)C(NC(=O)CCc1nc2ccccc2oc1=O)c1nc2ccccc2[nH]1 (stereo not given) | 4.4 (≈ 1.72 µg/mL)
32 | CNc1nc(SCC(=O)N(C)Cc2ccc(Cl)s2)nc2ccccc12 | 8.9 (≈ 3.5 µg/mL)
33 | O=c1c2snc(-c3ccc(F)cc3)c2ncn1Cc1ccc(F)cc1 | 9.6 (≈ 3.41 µg/mL)
34 | CCc1nc(N2CCNCC2)c2c(C)nn(-c3ccc(OC)cc3)c2n1 | 1.1 (≈ 0.388 µg/mL)
35 | CC(C)CCN(c1ccc(C#N)c(Cl)c1)[C@H]1CCNC1 | 2 (≈ 0.584 µg/mL)
36 | CCCCN1CCC(Cc2noc(-c3cc(Cl)c(N)c4c3OCCO4)n2)C1 (stereo not given) | 6.9 (≈ 2.71 µg/mL)
37 | FC(F)(F)c1ccccc1C1CCN(Cc2[nH]nc3ccccc23)CC1 | 6.3 (≈ 2.26 µg/mL)
38 | COc1ccc(CN2CCC3(CCc4ccccc43)CC2)cc1OCc1ccccc1 | 2.4 (≈ 0.993 µg/mL)
39 | C[C@@H]1CN(c2ncnc3c2nc(C2CC2)n3C2CCNC2)C[C@H](C)O1 (stereo not given in full) | 7.5 (≈ 2.57 µg/mL)
40 | CSc1ccc(C(=O)Nc2nnc(-c3ccc4c(c3)CCCC4)o2)cc1 | 7 (≈ 2.56 µg/mL)
41 | O=C(CSc1ccccc1)Nc1nc(-c2ccccn2)cs1 | 6.7 (≈ 2.19 µg/mL)
42 | O=C(Nc1cccc(Cl)c1)NC12CC3CC(CC(C3)C1)C2 | 6.3 (≈ 1.92 µg/mL)
43 | O=C(NNC(=O)c1cccs1)c1cnn(-c2ccccc2)n1 | 4.5 (≈ 1.41 µg/mL)
44 | O=C(NNC(=O)c1cccs1)c1ccc(OCc2ccccc2)cc1 | 9.9 (≈ 3.49 µg/mL)
45 | c1ccc(-c2nnc(Sc3ccnc(N4CCN(c5ccncc5)CC4)n3)n2CCN2CCOCC2)cc1 | 4.2 (≈ 2.22 µg/mL)
